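96-well plates; 48 h exposure; 5 concentrations. Endpoints by linear interpolation between flanking doses. Not reached: highest tested concentration assigned. GI50 = concentration required for 50% inhibition of growth.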 Activity calls are given as the source filed them. Rule as the data show it: active = GI50 up to about 1.1 µM and inactive = higher. Where a SMILES comes first, the peptide text is derived from it. The star is where a group is joined. Fmoc = O=C(OCC1c2ccccc2-c2ccccc21)*; OtBu = CC(C)(C)O*
Assays:
Assay in all cases: inhibition of tumour cell growth, NCI panel, 48 h
DU-145 = system: DU-145
MCF7 = system: MCF7
MDA-MB-231 = system: MDA-MB-231
SR = system: SR
T47D = system: T47D
M19-MEL = system: M19-MEL
LXFL 529 = system: LXFL 529
RXF 631 = system: RXF 631
DMS-114 = system: DMS-114

## O=c1[nH]cnc2sc(=S)c3c(c12)CCC3
DU-145
  GI50: 39 µM (inactive)
MCF7
  GI50: > 100 µM (inactive)
MDA-MB-231
  GI50: 32.6 µM (inactive)
SR
  GI50: 12.1 µM (inactive)
T47D
  GI50: 19.1 µM (inactive)

## CCN1CCCCC(=N\O)/C(=N/O)CCCC1
DU-145
  GI50: > 100 µM (inactive)
MCF7
  GI50: > 100 µM (inactive)
MDA-MB-231
  GI50: > 100 µM (inactive)
SR
  GI50: > 100 µM (inactive)

## Cc1cc(C)c(C2=NO[C@@H]3[C@H]2C(=O)C=C2N(Cc4ccccc4)CCO[C@@]23O)c(C)c1
M19-MEL
  GI50: > 100 µM (inactive)
MCF7
  GI50: > 100 µM (inactive)

## O=[S@@]1Nc2ccc(Br)cc2S1
LXFL 529
  GI50: 0.282 µM (active)
M19-MEL
  GI50: 3.98 µM (inactive)
RXF 631
  GI50: 3.3 µM (inactive)
SR
  GI50: 7.14 µM (inactive)

## OCC1C2C=CC(O2)[C@H]1CO (stereo partly drawn)
DMS-114
  GI50: 92.7 µM (inactive)
LXFL 529
  GI50: > 100 µM (inactive)
M19-MEL
  GI50: > 100 µM (inactive)
RXF 631
  GI50: > 100 µM (inactive)
SR
  GI50: > 100 µM (inactive)

## COc1ccc(C(OCC2OC(n3cc(C)c(=O)[nH]c3=O)CC2n2cc(Cn3cc(Br)c(=O)[nH]c3=O)nn2)(c2ccccc2)c2ccccc2)cc1 (stereo not drawn)
DU-145
  GI50: > 100 µM (inactive)
MCF7
  GI50: 16 µM (inactive)
MDA-MB-231
  GI50: > 100 µM (inactive)
SR
  GI50: > 100 µM (inactive)
T47D
  GI50: > 100 µM (inactive)

## O=S(O)CCCCSSCCCCS(=O)(=O)S
DMS-114
  GI50: 39.4 µM (inactive)
LXFL 529
  GI50: 22.2 µM (inactive)
M19-MEL
  GI50: 12.1 µM (inactive)
RXF 631
  GI50: 51.9 µM (inactive)

## N#C[C@@H](c1nc2ccccc2s1)c1ncccc1[N+](=O)[O-]
DU-145
  GI50: 6.34 µM (inactive)
MCF7
  GI50: 5.11 µM (inactive)
MDA-MB-231
  GI50: 7.83 µM (inactive)
SR
  GI50: 4.67 µM (inactive)
T47D
  GI50: 4.18 µM (inactive)

## COc1cc(C2C3=C(COC3=O)Oc3cc4c(cc32)OCO4)cc(OC)c1O (stereo not drawn)
DU-145
  GI50: 0.0157 µM (active)
MCF7
  GI50: < 0.01 µM (active)
MDA-MB-231
  GI50: < 0.0246 µM (active)
SR
  GI50: < 0.01 µM (active)
T47D
  GI50: 0.0157 µM (active)

## O=C(O)c1ccc(Nc2nc3ccccc3nc2-c2cccs2)cc1
DU-145
  GI50: > 100 µM (inactive)
MDA-MB-231
  GI50: > 100 µM (inactive)
SR
  GI50: 65.9 µM (inactive)
T47D
  GI50: 47 µM (inactive)

## CC(=O)N(C(=O)CC(=O)N1N=C(C)C(/N=N/c2cccc([N+](=O)[O-])c2)C1=O)c1ccc(Cl)cc1 (stereo not drawn)
DU-145
  GI50: > 10 µM (inactive)
MCF7
  GI50: > 10 µM (inactive)
MDA-MB-231
  GI50: > 10 µM (inactive)
SR
  GI50: > 10 µM (inactive)
T47D
  GI50: > 10 µM (inactive)

## O=C1CSc2cc([N+](=O)[O-])ccc2N1
DMS-114
  GI50: > 100 µM (inactive)
LXFL 529
  GI50: > 100 µM (inactive)
M19-MEL
  GI50: > 100 µM (inactive)
RXF 631
  GI50: > 100 µM (inactive)

## COC(=O)C(=O)C(C(=O)Nc1cccc(C)c1C)C1Sc2ccccc2NC1=O (stereo not drawn)
DMS-114
  GI50: 5.83 µM (inactive)
LXFL 529
  GI50: > 25 µM (inactive)
M19-MEL
  GI50: 14.6 µM (inactive)
SR
  GI50: 13.7 µM (inactive)

## CCOC(=O)c1cccc(NC(=O)CBr)c1
DU-145
  GI50: 1.82 µM (inactive)
MCF7
  GI50: 1.19 µM (inactive)
MDA-MB-231
  GI50: 1.82 µM (inactive)
SR
  GI50: 0.206 µM (active)
T47D
  GI50: 1.7 µM (inactive)

## CCOCc1cc(=O)c2c(O)cc3c(c2o1)CCC(C)(C)O3
DMS-114
  GI50: > 100 µM (inactive)
LXFL 529
  GI50: > 100 µM (inactive)
M19-MEL
  GI50: > 100 µM (inactive)
RXF 631
  GI50: > 100 µM (inactive)

## CCOC(=O)c1nc2ccc(OC)cc2c2c1Cc1ccccc1-2
DMS-114
  GI50: 23.9 µM (inactive)
LXFL 529
  GI50: > 100 µM (inactive)
M19-MEL
  GI50: > 100 µM (inactive)
RXF 631
  GI50: 61.7 µM (inactive)
SR
  GI50: > 100 µM (inactive)

## C[C@H](C(=O)O)C(=O)NC(=O)N(Cc1ccccc1)N=O
DMS-114
  GI50: > 100 µM (inactive)
LXFL 529
  GI50: > 100 µM (inactive)
M19-MEL
  GI50: > 100 µM (inactive)

## COC(=O)/C=C\n1nc(Br)c(=O)[nH]c1=O
DU-145
  GI50: > 100 µM (inactive)
MCF7
  GI50: > 100 µM (inactive)
MDA-MB-231
  GI50: > 100 µM (inactive)
SR
  GI50: > 100 µM (inactive)
T47D
  GI50: > 100 µM (inactive)

## CC1CC=CC(O)C1 (stereo not drawn)
DMS-114
  GI50: > 100 µM (inactive)
M19-MEL
  GI50: > 100 µM (inactive)
MCF7
  GI50: > 100 µM (inactive)

## CN(C(=O)C12C3C4C1C1C2C3C41C(=O)C(C)(C)C)C(C)(C)C (stereo not drawn)
DMS-114
  GI50: > 100 µM (inactive)
LXFL 529
  GI50: > 100 µM (inactive)
M19-MEL
  GI50: > 100 µM (inactive)
RXF 631
  GI50: > 100 µM (inactive)

## CC(C)C(=O)N1C(=O)O[C@@H](c2ccccc2)[C@H]1C
DMS-114
  GI50: > 100 µM (inactive)
LXFL 529
  GI50: > 100 µM (inactive)
M19-MEL
  GI50: > 100 µM (inactive)
SR
  GI50: > 100 µM (inactive)

## CN(C)CCNC(=O)c1ccc(Cl)c2ccc(-c3ccccc3)nc12
M19-MEL
  GI50: 3.69 µM (inactive)
MCF7
  GI50: 3.31 µM (inactive)

## O=S(O)c1cc(Cl)cc(Cl)c1OCc1ccccc1
DMS-114
  GI50: > 100 µM (inactive)
LXFL 529
  GI50: > 100 µM (inactive)
M19-MEL
  GI50: > 100 µM (inactive)
RXF 631
  GI50: > 100 µM (inactive)
SR
  GI50: > 100 µM (inactive)

## COc1ccc2cc3[n+](cc2c1OC)CCc1cc2c(cc1-3)OCO2 [BERBERINE CHLORIDE]
DMS-114
  GI50: 4.23 µM (inactive)
DU-145
  GI50: > 44.5 µM (inactive)
M19-MEL
  GI50: 5.56 µM (inactive)
MDA-MB-231
  GI50: 36.1 µM (inactive)
T47D
  GI50: 10.3 µM (inactive)

## COc1ccc(CNc2nc(NCc3ccc(OC)c(OC)c3)nc(NC3CCCCC3)n2)cc1
DU-145
  GI50: 3.4 µM (inactive)
MCF7
  GI50: 1.29 µM (inactive)
MDA-MB-231
  GI50: 5.13 µM (inactive)
SR
  GI50: 0.611 µM (active)
T47D
  GI50: 4.48 µM (inactive)

## O=S(O)c1cc(Cl)cc(Cl)c1O
DMS-114
  GI50: 80.9 µM (inactive)
LXFL 529
  GI50: > 100 µM (inactive)
M19-MEL
  GI50: > 100 µM (inactive)

## CC(C)C(NC(=O)OCC1c2ccccc2-c2ccccc21)C(=O)NC(CCC(=O)OC(C)(C)C)C(=O)OC(C)(C)C (stereo not drawn) (Fmoc-Val-Glu(OtBu)-OtBu; configuration not given here)
DU-145
  GI50: > 100 µM (inactive)
MCF7
  GI50: > 76.4 µM (inactive)
MDA-MB-231
  GI50: 19.3 µM (inactive)
SR
  GI50: 3.29 µM (inactive)
T47D
  GI50: 8.57 µM (inactive)

## O=C(Nc1ccc(F)cc1)C(=O)C(C(=O)c1ccccc1F)C1OC(=O)c2ccccc21 (stereo not drawn)
DMS-114
  GI50: 45.5 µM (inactive)
LXFL 529
  GI50: 34.8 µM (inactive)
SR
  GI50: 19.8 µM (inactive)

## NC(CCOCCP(=O)(O)CCOCCC(N)C(=O)O)C(=O)O (stereo not drawn)
DU-145
  GI50: > 100 µM (inactive)
MCF7
  GI50: > 100 µM (inactive)
MDA-MB-231
  GI50: > 100 µM (inactive)
SR
  GI50: > 100 µM (inactive)
T47D
  GI50: > 100 µM (inactive)

## N#CC(C#N)C1CN2CCC1CC2 (stereo not drawn)
DU-145
  GI50: > 100 µM (inactive)
MCF7
  GI50: > 100 µM (inactive)
MDA-MB-231
  GI50: > 100 µM (inactive)
SR
  GI50: > 100 µM (inactive)
T47D
  GI50: > 100 µM (inactive)

## COc1cc(S(=O)(=O)Nc2ccc(-c3csc(N4C(=O)C(C)SC4c4cccc(Oc5ccccc5)c4)n3)cc2)ccc1Cl (stereo not drawn)
DU-145
  GI50: 35.3 µM (inactive)
MCF7
  GI50: 24.1 µM (inactive)
SR
  GI50: 26.3 µM (inactive)
T47D
  GI50: 29.6 µM (inactive)

## COCC1N=C(c2cc(OC)c(OC)c(OC)c2-c2cc3c(cc2[C@@H](C)O)OCO3)O[C@H]1c1ccccc1 (stereo partly drawn)
M19-MEL
  GI50: > 90.8 µM (inactive)
MCF7
  GI50: > 61.1 µM (inactive)

## COc1cc(/C=C(\C)[N+](=O)[O-])cc(OC)c1
DU-145
  GI50: 18.7 µM (inactive)
MCF7
  GI50: 6.73 µM (inactive)
MDA-MB-231
  GI50: 16.7 µM (inactive)
SR
  GI50: 3.01 µM (inactive)
T47D
  GI50: 6.47 µM (inactive)

Source: ChEMBL document CHEMBL1201862, “PubChem BioAssay data set” (2004)
